Where no end group is shown, it is not given here.

Data on three sequences can be found in patent publication US7053178B2, “Synthetic peptides and kits for diagnosis of anti-phospholipid syndrome” (Yeda Research Development Co., LTD, priority 1998, dated 2006).

One test relates to anti-β2GPI G-3 mAb. Nature of the test: ELISA for adhesion molecule expression on HUVEC exposed to G-3 mAb. The format is cell-based, human. The settings on record: G-3 mAb preincubated with peptide. Here is the method: (§1) FIG. 4 is a bar graph showing inhibition of expression of the adhesion molecules E-selectin, intracellular adhesion molecule-1 (ICAM-1) and vascular cell adhesion molecule-1 (VCAM-1) on HUVEC by specific inhibitory monomer peptides A, B, or C. To the HUVEC incubated with β2GPI, were added anti-β2GPI ILA-1, ILA-3 and G-3 mAbs with and without preincubation (2 h) with the peptide monomers A, B and C, respectively, and control peptide D. The expression of adhesion molecules was probed by ELISA employing biotinylated anti-human ICAM-1, VCAM-1, E-selectin and streptavidin-alkaline phosphatase. Each point represents mean±SD of three different experiments.
(§2) (h) ELISA for detecting the expression of adhesion molecules following exposure to anti-β2GPI mAbs and the inhibitory peptides. HUVEC cells grown in 96-well plates and preincubated with mAbs, with and without different concentrations of specific and irrelevant peptides (100 ug/ml), were washed, fixed with 0.1% glutaraldehyde, and then treated with PBS containing 0.2% Triton-X100 in order to permeabilize the cell membrane (Adamson et al., 1996). The plates were blocked with 3% BSA and incubated with biotinylated mouse anti-human E-selectin, anti-human intracellular adhesion molecule-1 (ICAM-1) or anti-human vascular cell adhesion molecule-1 (VCAM-1) (PharMingen, Torreyana Road, San Diego, Calif.) 1 μg/ml for 1 hour. The cells were then exposed to streptavidin alkaline phosphatase (Jackson) and appropriate substrate.
(§3) The enhancement of monocytes to endothelial cells followed by increase in the amount of adhesion molecules expression, as a result of exposure of endothelial cells to anti-β2GPI mAbs, has been observed previously at the laboratory of one of the present inventors. The effect of each specific peptide monomer A, B, C on the expression of the adhesion molecules E-selectin, ICAM-1 and VCAM-1 on HUVEC caused by the corresponding anti-β2GPI mAb, was examined according to Materials and Methods, section (h). […]

In another test the test system is anti-β2GPI ILA-3 mAb. Briefly: U937 monocyte adhesion to HUVEC exposed to ILA-3 mAb. In kind it is cell-based, human. The settings on record: ILA-3 mAb preincubated with peptide, 15 μM peptide. Here is the method: FIGS. 3A–3C are graphs showing inhibition of U937 monocyte cell adhesion to HUVEC upon exposure to anti-β2GPI ILA-1, ILA-3 and G-3 mAbs and increasing concentrations of the inhibitory monomer peptides A, B and C, respectively, and of unrelated peptide D as control. The percentage of inhibition of adhesion was calculated as follows: % inhibition of adhesion=CPM in the presence of anti-β2GPI mAb−CPM in the presence of anti-β2GPI mAb and the tested peptide/CPM in the presence of anti-β2GPI mAb×100 (CPM=counts/min). Each point represents mean±SD of three different experiments.
(g) Adherence of U937 monocyte cells to endothelial cells in the presence of anti-β2GPI mAbs and the inhibitory peptides. This assay was performed as previously described (Carvalho et al., 1996). Briefly, U937 cells (a monocyte/macrophage-like cell line) were pretreated with heat-aggregated gamma-globulin for 30 min at 37° C. […] Radioactivity associated with adherence was quantified by beta-scintillation spectroscopy. The results were expressed as percent of added U937 cells that adhered and are presented as the mean±SD from 3–5 replicate wells.
The adhesion of monocytes to endothelial cells (EC) is considered a marker of EC activation. The percentage of adhesion is expressed as the portion of added U937 monocyte cells adhering to the HUVEC (thus reflecting the percentage of HUVEC coverage by the monocytes). […]

The test system of test [1] is anti-β2GPI ILA-1 mAb. Nature of the test: Cyto-ELISA: inhibition of ILA-1 mAb binding to HUVEC. Also on record: species or system human. The settings on record: peptide concentration of 10 μM. As to the method: FIGS. 2A–2C are graphs showing inhibition of the anti-β2GPI ILA-1, ILA-3 and G-3 mAbs binding to human umbilical vein endothelial cells (HUVEC) by competition assays using increasing concentrations of the inhibitory monomer peptides A, B and C, respectively, and of unrelated peptide D as control. The percent of inhibition was calculated as in FIG. 1 above. Each point represents mean±SD of three different experiments.
(f) Anti-β2GPI mAb binding to endothelial cells in the presence of the inhibitory peptides. Human umbilical vein endothelial cells (HUVEC) were isolated as previously described and cultured under standard conditions (Jaffe et al., 1973). Briefly, umbilical cords were treated with collagenase (0.2% from Clostridium histolyticum, Boehringer) for 20 min at 37° C., cells were cultured in medium 199 with 20% FCS, 10 μg/ml growth supplement, 100 μg/ml heparin and antibiotics (streptomycin, penicillin), and used at passages 1–2 for plating onto gelatin-coated 96-well plates. Cyto-ELISA was performed as detailed before (Jaffe et al., 1973). Briefly, mAbs at different concentrations were added to HUVEC confluent wells, previously coated with 10 μg/ml β2GPI for 2 hours and fixed with 0.1% glutaraldehyde. The bound mAb was detected by further 1-hour incubation with alkaline phosphatase-conjugated goat anti-human IgM. […]

Test [2] has as its system anti-β2GPI ILA-1 mAb. Briefly: ELISA for adhesion molecule expression on HUVEC exposed to ILA-1 mAb. The format is cell-based, human. To be noted: ILA-1 mAb preincubated with peptide. Here is the method: as §1, §2, §3

For CATLRVYKGG [Peptide C], in the test with anti-β2GPI G-3 mAb, the “E-selectin expression by HUVEC” value is reported as 0.215±0.047 O.D, the “ICAM-1 expression by HUVEC” value is given as 0.186±0.062 O.D and the “VCAM-1 expression by HUVEC” value was 0.174±0.062 O.D.
Consider KDKATFGTHDG [Peptide B], for which, in the test with anti-β2GPI ILA-3 mAb, the “inhibition of adhesion of U937 to HUVEC” value was 95%.
On to NTLKTPRVGG [Peptide A], for which the “inhibition of ILA-1 mAb binding to HUVEC” value in the test on anti-β2GPI ILA-1 mAb [1] is on record as 95%. In the test on anti-β2GPI ILA-1 mAb [2], the “E-selectin expression by HUVEC” value was 0.239±0.064 O.D, the “ICAM-1 expression by HUVEC” value worked out at 0.204±0.072 O.D and the “VCAM-1 expression by HUVEC” value is given as 0.252±0.071 O.D.
